Reference: US7495147B2, “Neuregulin-1 transgenic mouse and methods of use” (deCODE genetics ehf., priority 2000, dated 2009)

Tested on: NRG1TM hypomorphic mice
Assay: open field test of locomotor activity in NRG1TM hypomorphic mice and litter-mate controls
Assay type: in vivo, mouse
Details: litter-mate control (wild-type) mice; clozapine 1 mg/kg i.p. 25 min prior to testing
Procedure: Male NRG1TM hypomorphs, ErbB4 hypomorphs and litter-mate controls for each line were bred at Charles River Laboratories USA by crossing to a C57B16 background. They were shipped to the testing laboratory at PsychoGenics Inc. NY, USA (six weeks prior to behavioral testing) where they were housed in groups of 3-5 related mice per cage. The open field study was conducted when the male mice were 5 to 6 months of age. Group housed mice were brought into the experimental room and allowed to acclimate for one hour prior to testing. Each mouse was placed for 30 minutes in a square open field box (17×17×12 inch). Up to eight animals were tested at one time, one animal in each of eight arenas, under low lighting conditions (provided by a 15 watt red lamp). The automated infrared beam array system measured locomotion in the center and periphery of the test arena. Activity data were collected in 5 min intervals over the 30 min open field session and analyzed with a series of repeated measures analysis of variance (ANOVA) with session interval as a within-subject factor and genotype as a between-subject factor. Clozapine (1 mg/kg in 1% Tween 20, pH 6.0) was injected intraperitoneally (i.p.) 25 min before behavioral testing. Total activity data from the study with clozapine were analyzed with a two-tailed, Student's t-test. Naïve mice were used for these experiments. […]

CN1CCN(C2=Nc3cc(Cl)ccc3Nc3ccccc32)CC1 [Clozapine, clozapine]
open field activity of litter-mate control mice: no effect
